{
  "source": "paper PMC4424274",
  "about": "“Evaluation of [^11C]CB184 for imaging and quantification of TSPO overexpression in a rat model of herpes encephalitis” (European Journal of Nuclear Medicine and Molecular Imaging, 2015)",
  "key": {"[1]": {"target": "T1, TSPO (Rattus norvegicus, UniProt P16257)", "T1 construct": "from tissue; host or cells: Brain regions and peripheral organs of male Wistar rats, measured in vivo by PET and ex vivo by gamma counting", "conditions": "HSE rat model; cited from earlier work"}, "[2]": {"target": "T1, TSPO", "assay": "Ex vivo biodistribution of [^11C]CB184 in control and HSE rats", "conditions": "5 mg/kg unlabelled PK11195 5 min before tracer injection; control and HSE rats", "method": "PET scans were performed using a microPET Focus 220 camera (Siemens Medical Solutions Inc., Malvern, PA) on either day 6 or day 7 after inoculation with HSV-1 [18], depending on the severity of clinical symptoms. The rats were anaesthetized with 5 % isoflurane mixed with medical air at a flow rate of […]. After induction, anaesthesia was maintained with 1.5 – 2 % of isoflurane. The anaesthetized rats were positioned in the camera in a supine position with the head in the field of view. The PET tracer [^11C]CB184 was manually injected via the penile vein, and at the same time a dynamic 60-min scan was started. […] For 30 min the animals were kept under anaesthesia on the operation table after injection of the PET tracer into the penile vein, and were then placed in the scanner for a 30-min dynamic scan. A transmission scan was obtained in all rats using a ^57Co point source for attenuation and scatter correction. In the pretreated group, 5 mg/kg unlabelled PK11195 (Sigma-Aldrich, St. Louis, MO) in dimethyl sulphoxide (DMSO) at a concentration of 10 mg/ml was administered via a tail vein 5 min before injection of the PET tracer.\nThe brain and peripheral organs were excised and dissected, and blood was centrifuged to collect a plasma sample. Tissues were weighed and radioactivity was measured in a gamma counter (LKB Wallac, Turku, Finland). Tracer uptake in each region was corrected for the injected tracer dose and body weight and expressed as standardized uptake value (SUV), which was defined as: radioactivity (MBq/cm^3)/[injected dose (MBq)/body weight (g)]."}, "[3]": {"assay": "Plasma clearance and plasma metabolite analysis", "format": "in vivo, rat", "conditions": "metabolite-corrected plasma, intravenous injection, rats", "method": "(§1) PET scans with arterial blood sampling were performed in a different set of rats to generate input for pharmacokinetic modelling. For the arterial blood sampling a cannula was inserted into the femoral artery after induction of anaesthesia. The femoral vein was additionally cannulated for PET tracer injection. After cannulation, the rats were positioned in the camera and a transmission scan was acquired using a ^57Co point source. […] A 0.1 ml blood sample of was taken at 0, 5, 10, 15, 20, 30, 45, 60, 75, 90, 120, 180, 300, 450, 600, 900, 1,800 and 3,600 s after injection. A larger blood sample of 0.5 ml was taken at three time points (5, 15, 30 and/or 60 min) for metabolite analysis. After collection of each blood sample, heparinized saline was injected to prevent large changes in blood pressure. A 25 μl aliquot of whole blood was extracted from each sample for radioactivity measurement. The remainder of each sample was centrifuged at 13,000 rpm (15,996 g) for 8 min, and 25 μl plasma was taken for radioactivity measurement. The radioactivity in blood and plasma was measured with a gamma counter.\nRadioactive metabolites in plasma were measured using the extra blood samples taken at three time points during each scan (5, 15, 30 and/or 60 min). After centrifugation and collection of the plasma sample for radioactive measurement, as described above, the remaining plasma was diluted with acetonitrile (1.5 times the amount of plasma) and vortex-mixed. The plasma suspension was centrifuged at 5,300 rpm (3,030 g) for 3 min, and divided into supernatant and pellet. […] Fractions of 30 s were collected and measured in the gamma counter.\nThe percentage of metabolites in plasma was calculated by fitting an exponential function to the values obtained from the HPLC analysis. The plasma values obtained from the blood samples during the PET scan were then corrected for the presence of these metabolites, and used together with the whole-blood curve for further analysis. Metabolite corrected plasma TACs were fitted for each individual rat using iterative nonlinear least-squares fitting to the biexponential equation: SUVt = Ae^−αt + Be^−βt, where SUVt is the plasma SUV at time t, α and β are the apparent distribution and elimination rate constants (s^−1), respectively, and A and B are the corresponding zero-time intercepts. The weighting factors were the reciprocals of the plasma SUV squared. Distribution and elimination half-lives (seconds) were calculated as the natural logarithm of 2 divided by α and β, respectively."}, "[4]": {"target": "T1, TSPO", "assay": "Kinetic modelling of PET data (2TCMR, Logan): BPND and VT", "format": "in vivo", "method": "as §1\nThe TACs of those rats in which blood sampling was performed, together with their corresponding whole-blood and metabolite-corrected plasma curves, were used for pharmacokinetic modelling using PMOD v3.3 (PMOD Technologies, Zürich, Switzerland). […] The reversible two-tissue compartment model (2TCMR) with K 1/k 2 fixed to the whole cortex value and a fixed blood volume of 3 % were used to calculate the V T and nondisplaceable binding potential (BPND, calculated as k 3/k 4 [29])."}, "[5]": {"design": "method as in PMID 19050880", "conditions": "cited from earlier work"}, "[6]": {"conditions": "lipophilicity; cited from earlier work"}, "[7]": {"conditions": "control rats (PBS group), k3/k4"}},
  "note": "“And” between values parts separate entries of the source, which are not always exact repeats. Equal entries are not always repeated. Where two headings read alike, the source gives them in different places.",
  "data": [
    {"smiles": "COc1ccc(O[11CH3])c(CN(C(C)=O)c2cc(F)ccc2Oc2ccccc2)c1", "note": "[[^11C]DAA1106]", "values": [
      {"measurement": "Uptake in vivo in HSE rats vs. control rats", "setting": "[1]", "value": "did not show significantly higher uptake"}
    ]},
    {"smiles": "CCC(C)N(C)C(=O)c1cc2ccccc2c(-c2ccccc2Cl)n1", "note": "(centres unmarked) [PK11195, reference compound]", "values": [
      {"measurement": "Effect of pretreatment on [^11C]CB184 binding to TSPO", "setting": "[2]", "value": "blocked"}
    ]},
    {"smiles": "CC[C@@H](C)N([11CH3])C(=O)c1cc2ccccc2c(-c2ccccc2Cl)n1", "note": "[(R)-[^11C]PK11195, reference compound]", "values": [
      {"measurement": "Distribution half-life in plasma", "setting": "[3]", "value": "0.367 ± 0.12", "unit": "min"},
      {"measurement": "Elimination half-life in plasma", "setting": "[3]", "value": "65 ± 46", "unit": "min"},
      {"measurement": "Binding potential (BPND), Amygdala", "setting": "[4]; HSE group, k3/k4", "value": "1.92 ± 0.73"},
      {"measurement": "Binding potential (BPND), Cerebellum", "setting": "[4]; HSE group, k3/k4", "value": "1.89 ± 0.39"},
      {"measurement": "Binding potential (BPND), Frontal cortex", "setting": "[4]; HSE group, k3/k4", "value": "1.54 ± 0.54"},
      {"measurement": "Binding potential (BPND), Hippocampus", "setting": "[4]; HSE group, k3/k4", "value": "1.39 ± 0.58"},
      {"measurement": "Binding potential (BPND), Hypothalamus", "setting": "[4]; HSE group, k3/k4", "value": "2.28 ± 0.84"},
      {"measurement": "Binding potential (BPND), Midbrain", "setting": "[4]; HSE group, k3/k4", "value": "1.34 ± 0.42"},
      {"measurement": "Binding potential (BPND), Olfactory bulb", "setting": "[4]; HSE group, k3/k4", "value": "4.03 ± 1.20"},
      {"measurement": "Binding potential (BPND), Pons", "setting": "[4]; HSE group, k3/k4", "value": "2.44 ± 0.41"},
      {"measurement": "Binding potential (BPND), Rest cortices", "setting": "[4]; HSE group, k3/k4", "value": "1.62 ± 0.60"},
      {"measurement": "Binding potential (BPND), Septum", "setting": "[4]; HSE group, k3/k4", "value": "1.34 ± 0.57"},
      {"measurement": "Binding potential (BPND), Striatum", "setting": "[4]; HSE group, k3/k4", "value": "1.03 ± 0.43"},
      {"measurement": "Binding potential (BPND), Thalamus", "setting": "[4]; HSE group, k3/k4", "value": "1.03 ± 0.51"},
      {"measurement": "Binding potential (BPND), Whole brain", "setting": "[4]; HSE group, k3/k4", "value": "1.72 ± 0.49"},
      {"measurement": "Binding potential (BPND), Amygdala", "setting": "[4]; [7]", "value": "1.65 ± 0.62"},
      {"measurement": "Binding potential (BPND), Cerebellum", "setting": "[4]; [7]", "value": "1.51 ± 0.60"},
      {"measurement": "Binding potential (BPND), Frontal cortex", "setting": "[4]; [7]", "value": "1.35 ± 0.51"},
      {"measurement": "Binding potential (BPND), Hippocampus", "setting": "[4]; [7]", "value": "0.98 ± 0.44"},
      {"measurement": "Binding potential (BPND), Hypothalamus", "setting": "[4]; [7]", "value": "1.92 ± 0.82"},
      {"measurement": "Binding potential (BPND), Medulla", "setting": "[4]; [7]", "value": "1.7 ± 0.6 and 1.65 ± 0.60"},
      {"measurement": "Binding potential (BPND), Midbrain", "setting": "[4]; [7]", "value": "0.96 ± 0.49"},
      {"measurement": "Binding potential (BPND), Olfactory bulb", "setting": "[4]; [7]", "value": "3.76 ± 1.16"},
      {"measurement": "Binding potential (BPND), Pons", "setting": "[4]; [7]", "value": "1.74 ± 0.69"},
      {"measurement": "Binding potential (BPND), Rest cortices", "setting": "[4]; [7]", "value": "1.33 ± 0.46"},
      {"measurement": "Binding potential (BPND), Septum", "setting": "[4]; [7]", "value": "1.20 ± 0.38"},
      {"measurement": "Binding potential (BPND), Striatum", "setting": "[4]; [7]", "value": "0.88 ± 0.33"},
      {"measurement": "Binding potential (BPND), Thalamus", "setting": "[4]; [7]", "value": "0.75 ± 0.35"},
      {"measurement": "Binding potential (BPND), Whole brain", "setting": "[4]; [7]", "value": "1.38 ± 0.49"},
      {"measurement": "Increase of BPND in the medulla, HSE rats vs. control rats", "setting": "[4]; medulla", "value": 55, "unit": "%"},
      {"measurement": "Percentage of unchanged tracer in rat brain homogenate", "setting": "[5]; 20 min after injection", "value": "93 ± 4", "unit": "%"},
      {"measurement": "Percentage of unchanged tracer in rat brain homogenate", "setting": "[5]; 40 min after injection", "value": "90 ± 7", "unit": "%"},
      {"measurement": "logP", "setting": "[6]", "value": 2.54}
    ]}
  ]
}
